Experimental data as given in patent US20080253967A1, “Halo-Stilbene Derivatives And Their Use For Binding And Imaging Of Amyloid Plaques” (priority 2007, published 2008).
Several values for one entry are separate records, joined by “and”; a condition that tells them apart may be missing. Equal values may be shown once. Entries after “also recorded” stand apart in the source; their conditions may differ. Read-outs that look alike come from different tables or passages of the source. Blank lines part the entries; values can stand above or below the compound they belong to.

What was measured:
[1] = molecular target: fibrillar Aβ aggregates (Homo sapiens, UniProt P05067); conditions: read-out: Inhibition constants (Ki) for binding to fibrillar Aβ aggregates; cited from earlier work
[2] = system: 46 CNS and Cardiovascular receptor binding sites; experiment: Binding at CNS and Cardiovascular Receptors (panel of 46 sites); conditions: 1 μM; inhibition >50% considered significant
Procedure: A panel of 46 CNS and Cardiovascular receptor binding sites, including adenosine, adrenergic, benzodiazepine, bombesin, dopamine, GABA, melatonin, muscarinic, neurotensin, nicotininc acetylcholine, opiate, potassium channel, serotonin, sigma, and several transporter subtypes, was tested for binding of Compound 15. […] Inhibition of binding in excess of 50% by Compound 15 was considered potentially significant.

[3] = molecular target: T1, amyloid plaques (Homo sapiens, UniProt P05067); experiment: Inhibition of ^125I-IMPY binding in AD brain homogenates; conditions: read-out: Binding Affinity (Ki vs. ^125I-IMPY)
Procedure: Thus, inhibition of ^125I-IMPY binding in human AD brain homogenates was taken as an assay for the potential of test compounds to bind to amyloid plaques.
Postmortem brain tissue was obtained and neuropathological diagnosis was confirmed in accordance with the NIA-Reagan Institute Consensus Group criteria. Homogenates were then prepared from dissected gray matter, pooled in phosphate buffered saline and aliquoted into 1-ml portions (100 mg wet tissue/ml), which could be stored at −70° C. for 3-6 months without loss of binding signal.
(§1) For the binding assays brain homogenates were incubated with ^125I-IMPY (0.04-0.06 nM diluted in phosphate buffered saline (PBS)) and test compound (10^−5-10^−10 M diluted in PBS containing 0.1% bovine serum albumin (BSA)). […] The bound and free radioactivity was separated by vacuum filtration followed by 2×3 ml washes of PBS. Filters containing the bound ^125I ligand were assayed in a gamma counter.
as §1, with “in PBS)” for “in phosphate buffered saline (PBS))”, “0.1% BSA).” for “0.1% bovine serum albumin (BSA)).”, “bound […],” for “bound ^125I”

[4] = Organ distribution in normal mice after i.v. injection; assay type: in vivo; conditions: for Biodistribution Brain (% dose/g in brain) / % total counted / % total recovered / Biodistribution Brain: normal male mice; for Brain penetration and clearance: normal mice
Procedure: While under isoflurane anesthesia, 0.15 ml of a 0.9% saline solution containing ^123I-15 (5-10 μCi) was injected directly into the tail vein of ICR mice (22-25 g, male). The mice (n=3 for each time point) were sacrificed, the organs of interest were removed, weighed, and assayed with an automatic gamma counter. The percentage dose per organ was calculated by a comparison of the tissue counts to suitably diluted aliquots of the injected material. Total activities of blood were calculated under the assumption that they were 7% of the total body weight. The % dose/g of samples was calculated by comparing the sample counts with the count of the diluted initial dose. […] Similar results were obtained in female mice.
While under isoflurane anesthesia, 0.15 ml of a 0.9% saline solution containing ^123I-1b-3 (5-10 μCi) was injected directly into the tail vein of ICR mice (22-25 g, male and female) The mice (n=3 for each time point per sex) were sacrificed, the organs of interest were removed, weighed, and assayed with an automatic gamma counter. The percentage dose per organ was calculated by a comparison of the tissue counts to suitably diluted aliquots of the injected material. Total activities of blood were calculated under the assumption that they were 7% of the total body weight. The % dose/g of samples was calculated by comparing the sample counts with the count of the diluted initial dose.

[5] = molecular target: T1, amyloid plaques; conditions: AD brain homogenates; other amyloid plaque ligands; read-out: Binding Affinity (Ki vs. ^125I-IMPY), published values; cited from earlier work
[6] = molecular target: AD cortical homogenates; conditions: cited from earlier work
[7] = system: Aβ plaques; experiment: Film autoradiography of AD brain sections; assay type: binding, human; conditions: tracer concentrations, post-mortem AD brain sections
Procedure: (§2) Brain sections from a patient with AD were frozen in powdered dry ice and cut into 20 μm thick sections. The sections were incubated with ^123I-15 (200,000-250,000 cpm/200 μl) for 1 hour at room temperature. The sections were then dipped in saturated Li2CO3 in 40% EtOH (2×2 min. washes) and washed with 40% EtOH (1×2 min. wash) followed by rinsing with water for 30s. After drying, the ^123I-labeled sections were exposed to Kodak MR film overnight.
as §2, with “Brains” for “Brain”, “patients” for “a patient”, “^123I-1b-3” for “^123I-15”, “30 s.” for “30s.”

[8] = Estimate of human dosimetry extrapolated from mouse data; conditions: proposed 5 mCi human dose, extrapolation from mouse data
[9] = Partition coefficient 1-octanol/buffer; conditions: 1-octanol / 0.1 M phosphate buffer pH 7.4
Procedure: (§3) Partition coefficients were measured by mixing ^123I-15 with 3 g each of 1-octanol and buffer (0.1 M phosphate, pH 7.4) in a test tube. The test tube was vortexed for 3 min at room temperature, followed by centrifugation for 5 min. Two weighed samples (0.5 g each) from the 1-octanol and the buffer layer were counted in a well counter. The partition coefficient was determined by calculating the ratio of cpm/g of 1-octanol to that of the buffer. Samples from the 1-octanol layer were repartitioned until consistent partitions of coefficient values were obtained from the third partition. The measurement was done in triplicate and repeated three times.
(§4) The test tube was vortexed for 3 min at room temperature, followed by centrifugation for 5 min. Two weighed samples (0.5 g each) from the 1-octanol and the buffer layer were counted in a well counter. The partition coefficient was determined by calculating the ratio of cpm/g of 1-octanol to that of the buffer. Samples from the 1-octanol layer were repartitioned until consistent partitions of coefficient values were obtained from the third partition. The measurement was done in triplicate and repeated three times.

[10] = physchem; conditions: pH 7.4
Procedure: as §3, §4

T1 sequence (P05067 672-711 limits assumed): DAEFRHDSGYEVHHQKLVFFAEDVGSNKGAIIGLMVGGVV
fibrillar Aβ aggregates, sequence (P05067 672-711 limits assumed): as above

SMILES: O=C(O)c1cc(/N=N/c2ccc(-c3ccc(/N=N/c4ccc(O)c(C(=O)O)c4)cc3)cc2)ccc1O [CG, chrysamine-G]
Ki [1]: 370 nM

Ki [3]: 9 ± 1.8 nM
Biodistribution Brain (% dose/g in brain) ([4]; 2 min): 2.0 ± 0.4 % dose/g
Biodistribution Brain (% dose/g in brain) ([4]; 60 min): 0.51 ± 0.09 % dose/g
SMILES: CNc1ccc(/C=C/c2ccc(OCCOCCOCCF)c(I)c2)cc1 [Compound 1b-3, (E)-4-(4-(2-(2-(2-fluoroethoxy)ethoxy)ethoxy)-3-iodostyryl)-N-methylbenzenamine]
Selectivity (binding to CNS/CV receptors) [2]: No high affinity binding to any CNS receptors

Ki [3]: 6.7 ± 0.3 nM
Biodistribution Brain (% dose/g in brain) ([4]; 2 min): 4.8 ± 0.2 % dose/g
Biodistribution Brain (% dose/g in brain) ([4]; 60 min): 1.5 ± 0.2 % dose/g
SMILES: CNc1ccc(/C=C/c2ccc(OCCOCCOCCF)cc2)cc1 [Compound 3, (E)-4-(2-(6-(2-(2-(2-fluoroethoxy)ethoxy)ethoxy)phenyl)-vinyl)-N-methylbenzamine, reference compound]
Selectivity (binding to CNS/CV receptors) [2]: No high affinity binding to any CNS receptors

SMILES: CC(=C(C#N)C#N)c1ccc2cc(N(C)CC[18F])ccc2c1 [FDDNP, 2-(1-{6-[(2-[^18F]fluoroethyl)(methyl)amino]-2-naphthyl}ethylidene)malononitrile]
Ki [5]: 239 nM

SMILES: CNc1ccc(/C=C/c2ccc(O)cc2)cc1 [[^3H]SB-13]
Kd [6]: 2.4 ± 0.2 nM

SMILES: CNc1ccc(/C=C/c2ccc(OCCOCCOCCF)c([123I])c2)cc1 [^123I-1b-3]
Labeling of Aβ plaques in AD brain sections [7]: specifically labeled Aβ plaques; also recorded: colocalize with plaque staining by Congo Red
Estimated exposure of lower large intestine [8]: approximately 4.04 rem
Estimated exposure of upper large intestine [8]: ~3.55 rem
Estimated human effective dose (ED) [8]: 1.1 rem
Partition coefficient [9]: 432
logP [9]: 2.63
% total counted / % total recovered ([4]; 2 min): 82.20 ± 6.38%
Biodistribution Brain ([4]; 2 min): 1.01 ± 0.16 % dose/organ
Biodistribution Brain (% dose/g in brain) ([4]; 2 min): 2.0 % dose/g and 2.05 ± 0.41 % dose/g
% total counted / % total recovered ([4]; 60 min): 83.26 ± 6.99%
Biodistribution Brain ([4]; 60 min): 0.26 ± 0.05 % dose/organ
Biodistribution Brain (% dose/g in brain) ([4]; 60 min): 0.51 % dose/g and 0.51 ± 0.09 % dose/g
% total counted / % total recovered ([4]; 120 min): 83.56 ± 6.29%
% total counted / % total recovered ([4]; 180 min): 79.15 ± 6.31%
Brain penetration and clearance [4]: readily penetrates and is rapidly cleared from the brain

logD [10]: 2.4
logP [10]: 2.39
Estimated human effective dose (ED): approximately 1.1 rem
% total counted / % total recovered ([4]; 2 min): 86.65 ± 1.34%
Biodistribution Brain ([4]; 2 min): 1.49 ± 0.12 % dose/organ
Biodistribution Brain (% dose/g in brain) ([4]; 2 min): 3.4 % dose/g and 3.40 ± 0.31 % dose/g
% total counted / % total recovered ([4]; 60 min): 87.53 ± 4.57%
Biodistribution Brain ([4]; 60 min): 0.21 ± 0.01 % dose/organ
Biodistribution Brain (% dose/g in brain) ([4]; 60 min): 0.43 % dose/g and 0.43 ± 0.05 % dose/g
% total counted / % total recovered ([4]; 120 min): 79.41 ± 5.56%
% total counted / % total recovered ([4]; 180 min): 79.46 ± 5.15%
SMILES: CNc1ccc(/C=C/c2cc([123I])cc(OCCO)c2)cc1 [^123I-15]
Labeling of Aβ plaques in AD brain sections [7]: specifically labeled Aβ plaques
Brain penetration and clearance [4]: readily penetrates and is rapidly cleared from the brain
